{"source": "paper PMC3116920", "about": "“Mechanisms for the Evolution of a Derived Function in the Ancestral Glucocorticoid Receptor” (PLoS Genetics, 2011)", "key": {"Leri GR": {"molecular_target": "T1, Leri GR (Leucoraja erinaceus, UniProt Q1KXY4)", "T1 construct": "LBD fused to Gal4 DBD in pSG5; CHO-K1 cells with UAS-luciferase", "T1 sequence (Q1KXY4 1-317)": "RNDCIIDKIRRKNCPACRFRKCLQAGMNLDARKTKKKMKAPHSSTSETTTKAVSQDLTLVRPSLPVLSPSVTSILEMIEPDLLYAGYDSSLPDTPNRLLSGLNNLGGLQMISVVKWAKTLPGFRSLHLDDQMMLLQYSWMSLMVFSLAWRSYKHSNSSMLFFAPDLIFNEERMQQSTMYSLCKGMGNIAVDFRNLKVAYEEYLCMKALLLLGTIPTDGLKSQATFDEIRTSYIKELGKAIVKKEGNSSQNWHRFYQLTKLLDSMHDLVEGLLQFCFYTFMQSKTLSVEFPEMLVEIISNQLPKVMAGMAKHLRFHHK", "experiment": "cell-based", "parameters": "species or system CHO-K1; Gal4DBD-LBD UAS-driven luciferase reporter transactivation, Dual-Glo read-out", "description": "LBDs were cloned as fusion proteins into a pSG5-Gal4DBD expression vector (gift of D. Furlow) and cotransfected using Lipofectamine and Plus Reagents (Invitrogen, Carlsbad, CA) with a UAS-driven luciferase reporter gene (pFRluc) into mammalian cell culture (CHO-K1), and grown in phenol red-free α-MEM plus 10% dextran-charcoal-stripped fetal bovine serum (Hyclone, Logan, UT). Cells were incubated with transfection reagents for four hours, after which they were treated with fresh medium; after recovery, cells were treated in triplicate with hormone or vehicle control, and incubated for one day. Reporter expression was measured using Dual-Glo (Promega, Madison, WI) and dose-response relationships analyzed using Prism4 (GraphPad, La Jolla, CA). Site-directed mutagenesis was carried out using QuickChange II (Stratagene, La Jolla, CA) and clones verified by DNA sequencing. Plausible alternate states were defined as non-maximum likelihood amino acid states with posterior probability >0.20; we reasoned that residues that are present in one or more extant high-sensitivity receptors are the most likely to increase receptor sensitivity, whereas those that are present only in low-sensitivity receptors are unlikely to confer high sensitivity. Each such alternate state was introduced singly into the ML AncGR1.1, and the experimental characterization was repeated. We used a luciferase reporter gene expression assay to characterize the sensitivity of each LBD to four major corticosteroids present in elasmobranchs – 11-deoxycorticosterone (DOC), corticosterone, 1alpha-hydroxycorticosterone, and 11-dehydrocorticosterone, [35]. […] All hormone-activated cartilaginous fish GRs were most sensitive to DOC and corticosterone. The receptors had EC50 values (the hormone concentration required to elicit half-maximal activation) for these steroids in the 10^−8 to 10^−6 M range (Figure 2, Table S1), typical of the EC50s of bony fish GRs for glucocorticoids but two to four orders of magnitude greater than AncCR or the MRs of bony vertebrates. […]"}, "AncCR [1]": {"molecular_target": "T2, AncCR (synthetic construct, UniProt Z9R9E8A6B0, V46A/R119H, form not given)", "T2 construct": "LBD fused to Gal4 DBD in pSG5; CHO-K1 cells with UAS-luciferase", "T2 sequence (Z9R9E8A6B0 4-249 V46A/R119H)": "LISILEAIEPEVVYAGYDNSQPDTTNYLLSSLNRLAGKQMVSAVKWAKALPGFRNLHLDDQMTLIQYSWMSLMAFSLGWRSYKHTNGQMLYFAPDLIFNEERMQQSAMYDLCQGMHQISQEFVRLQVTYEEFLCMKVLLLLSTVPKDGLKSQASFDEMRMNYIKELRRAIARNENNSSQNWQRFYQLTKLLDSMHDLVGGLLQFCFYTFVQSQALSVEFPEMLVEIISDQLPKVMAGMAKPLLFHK", "experiment": "luciferase reporter gene activation (Gal4DBD-LBD)", "assay_type": "cell-based", "conditions": "CHO-K1 cells, agonist, one day, triplicate; error is SE", "source_text": "(§1) luciferase reporter gene activation (Gal4DBD-LBD) on AncCR"}, "AncCR [2]": {"molecular_target": "T3, AncCR (synthetic construct, UniProt Z9R9E8A6B0, S74C/Q116K, form not given)", "T3 construct": "LBD fused to Gal4 DBD in pSG5; CHO-K1 cells with UAS-luciferase", "T3 sequence (Z9R9E8A6B0 4-249 S74C/Q116K)": "T2 sequence (Z9R9E8A6B0 4-249 V46A/R119H) with A43V, S71C, Q113K, H116R", "experiment": "luciferase reporter gene activation (Gal4DBD-LBD)", "assay_type": "cell-based", "conditions": "CHO-K1 cells, agonist, one day, triplicate; error is SE", "source_text": "as §1"}, "AncCR [3]": {"molecular_target": "T4, AncCR (synthetic construct, UniProt Z9R9E8A6B0)", "T4 construct": "LBD fused to Gal4 DBD in pSG5; CHO-K1 cells with UAS-luciferase", "T4 sequence (Z9R9E8A6B0 4-249)": "T2 sequence (Z9R9E8A6B0 4-249 V46A/R119H) with A43V, H116R", "experiment": "luciferase reporter gene activation (Gal4DBD-LBD)", "assay_type": "cell-based", "conditions": "CHO-K1 cells, agonist, one day, triplicate; error is SE", "source_text": "as §1"}, "AncCR [4]": {"molecular_target": "T5, AncCR (synthetic construct, UniProt Z9R9E8A6B0, V46A/S74C, form not given)", "T5 construct": "LBD fused to Gal4 DBD in pSG5; CHO-K1 cells with UAS-luciferase", "T5 sequence (Z9R9E8A6B0 4-249 V46A/S74C)": "T2 sequence (Z9R9E8A6B0 4-249 V46A/R119H) with S71C, H116R", "experiment": "luciferase reporter gene activation (Gal4DBD-LBD)", "assay_type": "cell-based", "conditions": "CHO-K1 cells, agonist, one day, triplicate; error is SE", "source_text": "as §1"}, "AncCR [5]": {"molecular_target": "T6, AncCR (synthetic construct, UniProt Z9R9E8A6B0, S74C/Q214E, form not given)", "T6 construct": "LBD fused to Gal4 DBD in pSG5; CHO-K1 cells with UAS-luciferase", "T6 sequence (Z9R9E8A6B0 4-249 S74C/Q214E)": "T2 sequence (Z9R9E8A6B0 4-249 V46A/R119H) with A43V, S71C, H116R, Q211E", "experiment": "luciferase reporter gene activation (Gal4DBD-LBD)", "assay_type": "cell-based", "conditions": "CHO-K1 cells, agonist, one day, triplicate; error is SE", "source_text": "as §1"}, "AncCR [6]": {"molecular_target": "T7, AncCR (synthetic construct, UniProt Z9R9E8A6B0, S74C, form not given)", "T7 construct": "LBD fused to Gal4 DBD in pSG5; CHO-K1 cells with UAS-luciferase", "T7 sequence (Z9R9E8A6B0 4-249 S74C)": "T2 sequence (Z9R9E8A6B0 4-249 V46A/R119H) with A43V, S71C, H116R", "experiment": "luciferase reporter gene activation (Gal4DBD-LBD)", "assay_type": "cell-based", "conditions": "CHO-K1 cells, agonist, one day, triplicate; error is SE", "source_text": "as §1"}, "AncCR [7]": {"molecular_target": "T8, AncCR (synthetic construct, UniProt Z9R9E8A6B0, S74C/A110S, form not given)", "T8 construct": "LBD fused to Gal4 DBD in pSG5; CHO-K1 cells with UAS-luciferase", "T8 sequence (Z9R9E8A6B0 4-249 S74C/A110S)": "T2 sequence (Z9R9E8A6B0 4-249 V46A/R119H) with A43V, S71C, A107S, H116R", "experiment": "luciferase reporter gene activation (Gal4DBD-LBD)", "assay_type": "cell-based", "conditions": "CHO-K1 cells, agonist, one day, triplicate; error is SE", "source_text": "as §1"}, "AncCR [8]": {"molecular_target": "T9, AncCR (synthetic construct, UniProt Z9R9E8A6B0, S74C/K86Q, form not given)", "T9 construct": "LBD fused to Gal4 DBD in pSG5; CHO-K1 cells with UAS-luciferase", "T9 sequence (Z9R9E8A6B0 4-249 S74C/K86Q)": "T2 sequence (Z9R9E8A6B0 4-249 V46A/R119H) with A43V, S71C, K83Q, H116R", "experiment": "luciferase reporter gene activation (Gal4DBD-LBD)", "assay_type": "cell-based", "conditions": "CHO-K1 cells, agonist, one day, triplicate; error is SE", "source_text": "as §1"}, "AncCR [9]": {"molecular_target": "T10, AncCR (synthetic construct, UniProt Z9R9E8A6B0, L4M/S74C, form not given)", "T10 construct": "LBD fused to Gal4 DBD in pSG5; CHO-K1 cells with UAS-luciferase", "T10 sequence (Z9R9E8A6B0 4-249 L4M/S74C)": "T2 sequence (Z9R9E8A6B0 4-249 V46A/R119H) with L1M, A43V, S71C, H116R", "experiment": "luciferase reporter gene activation (Gal4DBD-LBD)", "assay_type": "cell-based", "conditions": "CHO-K1 cells, agonist, one day, triplicate; error is SE", "source_text": "as §1"}, "AncCR [10]": {"molecular_target": "T11, AncCR (synthetic construct, UniProt Z9R9E8A6B0, S74C/R119H, form not given)", "T11 construct": "LBD fused to Gal4 DBD in pSG5; CHO-K1 cells with UAS-luciferase", "T11 sequence (Z9R9E8A6B0 4-249 S74C/R119H)": "T2 sequence (Z9R9E8A6B0 4-249 V46A/R119H) with A43V, S71C", "experiment": "luciferase reporter gene activation (Gal4DBD-LBD)", "assay_type": "cell-based", "conditions": "CHO-K1 cells, agonist, one day, triplicate; error is SE", "source_text": "as §1"}, "AncCR [11]": {"molecular_target": "T12, AncCR (synthetic construct, UniProt Z9R9E8A6B0, V46A/S74C/R119H, form not given)", "T12 construct": "LBD fused to Gal4 DBD in pSG5; CHO-K1 cells with UAS-luciferase", "T12 sequence (Z9R9E8A6B0 4-249 V46A/S74C/R119H)": "T2 sequence (Z9R9E8A6B0 4-249 V46A/R119H) with S71C", "experiment": "luciferase reporter gene activation (Gal4DBD-LBD)", "assay_type": "cell-based", "conditions": "CHO-K1 cells, agonist, one day, triplicate; error is SE", "source_text": "as §1"}}, "note": "Positions count from the first letter of the chain named. Like-named read-outs stand apart in the source and are kept apart here.", "data": [{"smiles": "C[C@]12C[C@H](O)[C@H]3[C@@H](CCC4=CC(=O)CC[C@@]43C)[C@@H]1CC[C@@H]2C(=O)CO", "note": "[B, corticosterone]", "values": [{"measurement": "EC50", "setting": "Leri GR; read-out: B log EC50 (converted)", "result": 28.3, "unit": "nM"}]}, {"smiles": "C[C@]12CC[C@H]3[C@@H](CCC4=CC(=O)CC[C@@]43C)[C@@H]1CC[C@@H]2C(=O)CO", "note": "[DOC, 11-deoxycorticosterone]", "values": [{"measurement": "log EC50 ^b", "setting": "AncCR [1]", "result": "−8.387 ± 0.54", "unit": "log10 M"}, {"measurement": "log EC50 ^b", "setting": "AncCR [2]", "result": "−9.773 ± 0.43", "unit": "log10 M"}, {"measurement": "log EC50 ^b", "setting": "AncCR [3]", "result": "−10.690 ± 0.64", "unit": "log10 M"}, {"measurement": "log EC50 ^b", "setting": "AncCR [4]", "result": "−8.443 ± 0.15", "unit": "log10 M"}, {"measurement": "log EC50 ^b", "setting": "AncCR [5]", "result": "−10.170 ± 0.43", "unit": "log10 M"}, {"measurement": "log EC50 ^b", "setting": "AncCR [6]", "result": "−10.870 ± 0.34", "unit": "log10 M"}, {"measurement": "log EC50 ^b", "setting": "AncCR [7]", "result": "−10.350 ± 0.24", "unit": "log10 M"}, {"measurement": "log EC50 ^b", "setting": "AncCR [8]", "result": "−10.330 ± 0.41", "unit": "log10 M"}, {"measurement": "log EC50 ^b", "setting": "AncCR [9]", "result": "−10.250 ± 0.30", "unit": "log10 M"}, {"measurement": "log EC50 ^b", "setting": "AncCR [10]", "result": "−8.812 ± 0.28", "unit": "log10 M"}, {"measurement": "log EC50 ^b", "setting": "AncCR [11]", "result": "−6.418 ± 0.06", "unit": "log10 M"}, {"measurement": "EC50", "setting": "Leri GR; read-out: DOC log EC50 (converted)", "result": 305, "unit": "nM"}]}, {"smiles": "C[C@]12C[C@H](O)[C@H]3[C@@H](CCC4=CC(=O)C[C@H](O)[C@@]43C)[C@@H]1CC[C@@H]2C(=O)CO", "note": "[1α-B, 1α-hydroxycorticosterone]", "values": [{"measurement": "EC50", "setting": "Leri GR; read-out: 1α-B log EC50 (converted)", "result": 2000, "unit": "nM"}]}]}
